Measured values from publication PMC6220894 (Food and chemical toxicology : an international journal …, 2018).
Where two headings read alike, the source gives them in different places.

Key:
hERG = hERG (Homo sapiens, UniProt Q12809); type: cell-based
[1] = Red blood cell distribution in whole blood; type: in vitro ADME; conditions: human, whole blood (pooled, EDTA)
[2] = tested on: Salmonella typhimurium TA 1535; type: cell-based; conditions: plate incorporation
[3] = Stability in rabbit plasma; type: in vitro ADME
[4] = tested on: Salmonella typhimurium TA 100; type: cell-based; conditions: plate incorporation
[5] = Red blood cell distribution in whole blood; type: in vitro ADME; conditions: male, Sprague-Dawley, rat, whole blood (EDTA)
[6] = In vitro metabolism in cryopreserved hepatocytes; type: in vitro ADME; conditions: human hepatocytes; 25 µM; 4 hours
[7] = In vitro metabolism in cryopreserved hepatocytes; type: in vitro ADME; conditions: rat hepatocytes; 25 µM; 4 hours
[8] = mice; long-term (10 month) administration; ref Davies et al., 2011; cited from earlier work
[9] = In vitro metabolism in cryopreserved hepatocytes; type: in vitro ADME; conditions: rabbit hepatocytes; 25 µM; 4 hours
CYP3A4 = experiment: CYP mRNA induction in human hepatocytes; type: in vitro ADME; conditions: 0.3, 3, 30 µM; 72 hours; 3 donors
hypertension = conditions: mice; ref Wu et al., 2016; cited from earlier work
C. elegans = conditions: ref Nguyen et al., 2016; cited from earlier work
in vitro = conditions: both, human, plasma (pooled), pH 7.4
plasma protein [10] = conditions: human plasma, mean ± SE
[11] = Stability in rabbit whole blood; type: in vitro ADME
[12] = Plasma protein binding by equilibrium dialysis; type: in vitro ADME; conditions: male, Sprague-Dawley, rat, plasma, pH 7.4
plasma protein [13] = experiment: Plasma protein binding by equilibrium dialysis; type: in vitro ADME; conditions: rat plasma, mean ± SE
[14] = tested on: Salmonella typhimurium TA 98; experiment: Ames bacterial reverse mutation assay, plate incorporation method; type: cell-based
[15] = tested on: Salmonella typhimurium TA 102; experiment: Ames bacterial reverse mutation assay, pre-incubation method; type: cell-based
CYP1A2 = experiment: CYP mRNA induction in human hepatocytes; type: in vitro ADME; conditions: 0.3, 3, 30 µM; 72 hours; 3 donors
[16] = tested on: Salmonella typhimurium TA 1537; experiment: Ames bacterial reverse mutation assay, plate incorporation method; type: cell-based
[17] = tested on: Salmonella typhimurium TA 102; experiment: as above; type: cell-based
CYP1A2 or CYP3A4 = experiment: CYP mRNA induction in human hepatocytes, isoform not given; type: in vitro ADME; conditions: 0.3 µM; one donor; isoform not stated
[18] = +S9, 0.05 mg/plate as printed (third dose row)
[19] = −S9, 0.05 mg/plate as printed (third dose row)

Chain of hERG (Q12809 whole entry): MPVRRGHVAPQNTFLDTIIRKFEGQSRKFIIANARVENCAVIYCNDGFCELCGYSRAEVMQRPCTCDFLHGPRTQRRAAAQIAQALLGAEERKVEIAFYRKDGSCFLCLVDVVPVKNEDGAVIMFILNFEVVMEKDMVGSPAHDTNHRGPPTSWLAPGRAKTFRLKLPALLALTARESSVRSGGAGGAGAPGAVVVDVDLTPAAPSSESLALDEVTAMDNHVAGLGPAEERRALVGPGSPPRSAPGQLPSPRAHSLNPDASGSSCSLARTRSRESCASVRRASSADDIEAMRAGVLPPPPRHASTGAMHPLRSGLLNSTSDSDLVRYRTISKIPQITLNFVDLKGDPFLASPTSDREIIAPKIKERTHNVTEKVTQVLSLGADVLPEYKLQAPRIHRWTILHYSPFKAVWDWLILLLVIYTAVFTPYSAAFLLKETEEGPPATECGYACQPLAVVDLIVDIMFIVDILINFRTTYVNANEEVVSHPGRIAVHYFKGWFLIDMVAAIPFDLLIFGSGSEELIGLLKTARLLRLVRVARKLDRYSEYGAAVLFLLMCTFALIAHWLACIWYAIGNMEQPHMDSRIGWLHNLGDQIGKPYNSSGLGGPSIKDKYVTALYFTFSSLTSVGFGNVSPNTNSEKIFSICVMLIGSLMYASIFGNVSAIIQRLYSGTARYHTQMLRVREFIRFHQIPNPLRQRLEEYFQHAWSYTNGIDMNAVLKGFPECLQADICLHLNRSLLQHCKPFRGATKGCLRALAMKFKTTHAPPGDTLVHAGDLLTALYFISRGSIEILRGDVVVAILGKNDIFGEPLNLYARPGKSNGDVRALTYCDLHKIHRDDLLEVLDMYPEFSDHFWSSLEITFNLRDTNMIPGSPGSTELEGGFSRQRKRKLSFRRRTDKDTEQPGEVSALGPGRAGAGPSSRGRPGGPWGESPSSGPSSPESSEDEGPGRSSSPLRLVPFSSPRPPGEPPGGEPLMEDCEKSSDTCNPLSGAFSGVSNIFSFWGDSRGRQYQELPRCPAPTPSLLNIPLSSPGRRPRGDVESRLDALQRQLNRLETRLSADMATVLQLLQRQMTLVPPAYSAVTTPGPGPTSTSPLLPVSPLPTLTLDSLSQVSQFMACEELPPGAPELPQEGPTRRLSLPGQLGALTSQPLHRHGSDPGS

With `CC(=O)O.NCc1ccccc1O` [2-HOBA, 2-Hydroxybenzylamine acetate] the IC50 (hERG) was greater than 100 µM, the “Inhibition of hERG current” value (hERG; 0.1 µM) was “no inhibition” and the “Inhibition of hERG current” value (hERG; 1 µM, mean ± SE) was 3.0 ± 0.5 % inhibition. For the same molecule, the “Inhibition of hERG current” value (hERG; 10 µM, mean ± SE) was 9.7 ± 1.8 % inhibition, the “Inhibition of hERG current” value (hERG; 100 µM, mean ± SE) was 29.1 ± 1.3 % inhibition and the Kp at 2 h, 1 µM [1] was 1.26 ± 0.01. It also gave a Kp at 2 h, 10 µM [1] of 1.08, a blood plasma ratio at 2 h, 1 µM [1] of 1.12 ± 0.03 and a blood plasma ratio at 2 h, 10 µM [1] of 1.04. For the same molecule, the “Mean plate counts (revertant colonies)” value ([2]; +S9, 0.05 mg/plate) was 9.3±1.5, the “Mean plate counts (revertant colonies)” value [2, 18] was 10.7±0.6 and the “Mean plate counts (revertant colonies)” value ([2]; +S9, 0.15 mg/plate) was 9.0±1.0. The “Mean plate counts (revertant colonies)” value ([2]; +S9, 1.5 mg/plate) was 10.3±1.5, the “Mean plate counts (revertant colonies)” value ([2]; +S9, 5 mg/plate) was 10.3±1.5 and the “Change in revertant colony counts vs negative control (mutagenicity)” value (from here on “Change in revertant colony counts”) ([2]; +S9 and −S9, all dose levels) was “No changes in revertant colony counts were observed”. The “Mean plate counts (revertant colonies)” value ([2]; −S9, 0.05 mg/plate) was 10.7±0.6, the “Mean plate counts (revertant colonies)” value [2, 19] was 10.7±1.2 and the “Mean plate counts (revertant colonies)” value ([2]; −S9, 0.15 mg/plate) was 11.0±1.0. The “Mean plate counts (revertant colonies)” value ([2]; −S9, 1.5 mg/plate) was 10.7±1.2, the “Mean plate counts (revertant colonies)” value ([2]; −S9, 5 mg/plate) was 11.0±1.0 and the fraction metabolized ([3]; within 30 min) was “more than 60%”. The fraction metabolized ([3]; within 2 hours) was “nearly all”, the “Mean plate counts (revertant colonies)” value ([4]; +S9, 0.05 mg/plate) was 106.3±1.5 and the “Mean plate counts (revertant colonies)” value [4, 18] was 96.3±5.1. The “Mean plate counts (revertant colonies)” value ([4]; +S9, 0.15 mg/plate) was 104.7±8.1, the “Mean plate counts (revertant colonies)” value ([4]; +S9, 1.5 mg/plate) was 106.7±6.1 and the “Mean plate counts (revertant colonies)” value ([4]; +S9, 5 mg/plate) was 101.3±4.2. The “Change in revertant colony counts” value ([4]; +S9 and −S9, all dose levels) was “No changes in revertant colony counts were observed”, the “Mean plate counts (revertant colonies)” value ([4]; −S9, 0.05 mg/plate) was 90.3±1.5 and the “Mean plate counts (revertant colonies)” value [4, 19] was 100.0±9.2. For the same molecule, the “Mean plate counts (revertant colonies)” value ([4]; −S9, 0.15 mg/plate) was 105.3±8.3, the “Mean plate counts (revertant colonies)” value ([4]; −S9, 1.5 mg/plate) was 101.3±3.2 and the “Mean plate counts (revertant colonies)” value ([4]; −S9, 5 mg/plate) was 100.7±2.1. The Kp at 2 h, 1 µM [5] was 0.72 ± 0.1, the Kp at 2 h, 10 µM [5] was 0.78 and the blood plasma ratio at 2 h, 1 µM [5] was 0.87 ± 0.05. For the same molecule, the blood plasma ratio at 2 h, 10 µM [5] was 0.9, the principle metabolites observed [6] was “salicylic acid (M1) and the glycoside conjugate metabolite of 2-HOBA” and the principle metabolites observed [7] was “salicylic acid (M1) and the glycoside conjugate metabolite of 2-HOBA”. For the same molecule, the “body weight or survival” value [8] was “did not affect body weight or survival”, the principle metabolites observed [9] was “salicylic acid (M1) and the glycoside conjugate metabolite of 2-HOBA” and the “CYP3A4 mRNA induction (concentration-dependent >2-fold increase)” value (CYP3A4) was “no evidence of mRNA induction”. For the same molecule, the hypertension (hypertension) was “improved hypertension”, the lifespan (C. elegans) was “increased lifespan” and the fraction unbound at 4 h, 1 µM (in vitro) was 0.921 ± 0.024. For the same molecule, the fraction unbound at 4 h, 10 µM (in vitro) was 0.86, the “fb (bound fraction)” value (plasma protein [10]; 1 µM) was 0.079 ± 0.023 and the “fb (bound fraction)” value (plasma protein [10]; 10 µM) was 0.140 ± 0.022. For the same molecule, the “stability in the presence of semicarbazide” value ([11]; rabbit blood fortified with semicarbazide (100 µm)) was “prevented the degradation of 2-HOBA”, the time until undetectable ([11]; rabbit whole blood, 1 µM, 37°C) was no more than 2 h and the fraction metabolized ([11]; rabbit whole blood, within 30 min) was “more than 60%”. The fraction metabolized ([11]; rabbit whole blood, within 2 hours) was “nearly all”, the fraction unbound at 4 h, 1 µM [12] was 0.76 ± 0.051 and the fraction unbound at 4 h, 10 µM [12] was 0.951. The “fb (bound fraction)” value (plasma protein [13]; 1 µM) was 0.240 ± 0.051, the “fb (bound fraction)” value (plasma protein [13]; 10 µM) was 0.049 ± 0.029 and the “Mean plate counts (revertant colonies)” value ([14]; +S9, 0.05 mg/plate) was 20.7±1.2. The “Mean plate counts (revertant colonies)” value [14, 18] was 20.7±1.2, the “Mean plate counts (revertant colonies)” value ([14]; +S9, 0.15 mg/plate) was 21.0±3.0 and the “Mean plate counts (revertant colonies)” value ([14]; +S9, 1.5 mg/plate) was 21.3±1.5. For the same molecule, the “Mean plate counts (revertant colonies)” value ([14]; +S9, 5 mg/plate) was 22.0±2.0, the “Change in revertant colony counts” value ([14]; +S9 and −S9, all dose levels) was “No changes in revertant colony counts were observed” and the “Mean plate counts (revertant colonies)” value ([14]; −S9, 0.05 mg/plate) was 19.7±1.5. The “Mean plate counts (revertant colonies)” value [14, 19] was 22.0±3.6, the “Mean plate counts (revertant colonies)” value ([14]; −S9, 0.15 mg/plate) was 20.0±1.0 and the “Mean plate counts (revertant colonies)” value ([14]; −S9, 1.5 mg/plate) was 21.3±1.5. For the same molecule, the “Mean plate counts (revertant colonies)” value ([14]; −S9, 5 mg/plate) was 21.0±2.0, the “Mean plate counts (revertant colonies)” value ([15]; +S9, 0.05 mg/plate) was 280.0±6.0 and the “Mean plate counts (revertant colonies)” value ([15]; +S9, 0.15 mg/plate) was 271.3±11.0. For the same molecule, the “Mean plate counts (revertant colonies)” value ([15]; +S9, 0.5 mg/plate) was 256.0±7.2, the “Mean plate counts (revertant colonies)” value ([15]; +S9, 1.5 mg/plate) was 283.3±16.2 and the “Mean plate counts (revertant colonies)” value ([15]; +S9, 5 mg/plate) was 256.7±8.1. For the same molecule, the “Change in revertant colony counts” value ([15]; +S9 and −S9, all dose levels) was “No changes in revertant colony counts were observed”, the “Mean plate counts (revertant colonies)” value ([15]; −S9, 0.05 mg/plate) was 241.3±12.1 and the “Mean plate counts (revertant colonies)” value [15, 19] was 236.0±15.6. For the same molecule, the “Mean plate counts (revertant colonies)” value ([15]; −S9, 0.15 mg/plate) was 232.7±3.1, the “Mean plate counts (revertant colonies)” value ([15]; −S9, 1.5 mg/plate) was 250.0±12.5 and the “Mean plate counts (revertant colonies)” value ([15]; −S9, 5 mg/plate) was 250.7±14.0. For the same molecule, the “CYP1A2 mRNA induction (concentration-dependent >2-fold increase)” value (CYP1A2) was “no evidence of mRNA induction”, the “Mean plate counts (revertant colonies)” value ([16]; +S9, 0.05 mg/plate) was 6.3±0.6 and the “Mean plate counts (revertant colonies)” value [16, 18] was 6.3±0.6. The “Mean plate counts (revertant colonies)” value ([16]; +S9, 0.15 mg/plate) was 6.3±1.5, the “Mean plate counts (revertant colonies)” value ([16]; +S9, 1.5 mg/plate) was 6.0±1.0 and the “Mean plate counts (revertant colonies)” value ([16]; +S9, 5 mg/plate) was 6.3±1.5. For the same molecule, the “Change in revertant colony counts” value ([16]; +S9 and −S9, all dose levels) was “No changes in revertant colony counts were observed”, the “Mean plate counts (revertant colonies)” value ([16]; −S9, 0.05 mg/plate) was 5.0±1.0 and the “Mean plate counts (revertant colonies)” value [16, 19] was 5.3±0.6. The “Mean plate counts (revertant colonies)” value ([16]; −S9, 0.15 mg/plate) was 5.0±0.0, the “Mean plate counts (revertant colonies)” value ([16]; −S9, 1.5 mg/plate) was 5.7±1.2 and the “Mean plate counts (revertant colonies)” value ([16]; −S9, 5 mg/plate) was 6.0±1.0. The “Mean plate counts (revertant colonies)” value ([17]; +S9, 0.05 mg/plate) was 302.7±11.4, the “Mean plate counts (revertant colonies)” value [17, 18] was 323.3±61.2 and the “Mean plate counts (revertant colonies)” value ([17]; +S9, 0.15 mg/plate) was 296.7±27.2. The “Mean plate counts (revertant colonies)” value ([17]; +S9, 1.5 mg/plate) was 293.3±24.2, the “Mean plate counts (revertant colonies)” value ([17]; +S9, 5 mg/plate) was 282.7±19.0 and the “Change in revertant colony counts” value ([17]; +S9 and −S9, all dose levels) was “No changes in revertant colony counts were observed”. The “Mean plate counts (revertant colonies)” value ([17]; −S9, 0.05 mg/plate) was 292.7±6.4, the “Mean plate counts (revertant colonies)” value [17, 19] was 279.3±14.2 and the “Mean plate counts (revertant colonies)” value ([17]; −S9, 0.15 mg/plate) was 287.3±24.0. For the same molecule, the “Mean plate counts (revertant colonies)” value ([17]; −S9, 1.5 mg/plate) was 297.3±6.4, the “Mean plate counts (revertant colonies)” value ([17]; −S9, 5 mg/plate) was 328.0±63.2 and the “percent induction relative to positive control induction level” value (CYP1A2 or CYP3A4) was “less than 5 % of positive control”.
